From patent US20080021026A1, “BENZOTHIOPHENE INHIBITORS OF RHO KINASE” (priority 2006, published 2008)
Like-named read-outs stand apart in the source and are kept apart here.

Key:
[1] = target: T1, recombinant N-terminal GST-tagged human Rho kinase 2 (ROCK2, amino acids 1-552) (Homo sapiens, UniProt O75116); experiment: In vitro Rho kinase assay (luciferase-based ATP consumption), ROCK2; format: biochemical
T1 construct: ROCK2, amino acids 1-552; purchased Invitrogen Inc. PV3759
Method in brief: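 Luciferase-based luminescence of leftover ATP after 2 h at 30 °C, where inhibition raises signal, reports activity of GST-tagged ROCK2 (aa 1-552) at 0.82 μg/ml. Conditions: S6 peptide 100 μg/ml, […], pH 7.5 Tris buffer. Results given as percent of H-1152P control activity.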

[2] = target: T2, recombinant N-terminal GST-tagged human Rho kinase 1 (ROCK1, amino acids 1-535) (Homo sapiens, UniProt Q13464); experiment: In vitro Rho kinase assay (luciferase-based ATP consumption), ROCK1; format: biochemical
T2 construct: ROCK1, amino acids 1-535; purchased Invitrogen Inc. PV-3691
Method in brief: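 ATP depletion measured by firefly luciferase luminescence after 2 h at 30 °C, with inhibition raising signal and activity expressed relative to H-1152P. Reaction: 0.82 μg/ml recombinant GST-tagged ROCK1 (aa 1-535), S6 peptide 100 μg/ml, […], pH 7.5 Tris buffer.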

[3] = recombinant GST-tagged human ROCK2, luciferase-based ATP consumption, read-out: ROCK2 IC50
[4] = recombinant GST-tagged human ROCK1, luciferase-based ATP consumption, read-out: ROCK1 IC50

T2 sequence (Q13464 1-535): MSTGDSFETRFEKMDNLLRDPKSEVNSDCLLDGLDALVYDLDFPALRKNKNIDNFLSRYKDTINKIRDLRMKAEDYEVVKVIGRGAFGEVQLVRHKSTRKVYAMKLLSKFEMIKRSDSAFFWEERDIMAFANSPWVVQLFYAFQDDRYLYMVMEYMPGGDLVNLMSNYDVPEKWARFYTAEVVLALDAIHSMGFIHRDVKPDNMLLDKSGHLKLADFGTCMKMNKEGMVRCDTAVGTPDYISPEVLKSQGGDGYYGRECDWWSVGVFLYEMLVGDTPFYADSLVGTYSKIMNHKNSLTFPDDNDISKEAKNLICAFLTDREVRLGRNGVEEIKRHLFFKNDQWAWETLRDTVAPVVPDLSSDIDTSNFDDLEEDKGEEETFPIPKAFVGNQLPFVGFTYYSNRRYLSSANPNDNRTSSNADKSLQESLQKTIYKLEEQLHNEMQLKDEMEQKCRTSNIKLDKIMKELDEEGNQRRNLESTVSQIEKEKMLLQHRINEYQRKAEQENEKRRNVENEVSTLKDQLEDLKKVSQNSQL
T1 sequence (O75116 1-552): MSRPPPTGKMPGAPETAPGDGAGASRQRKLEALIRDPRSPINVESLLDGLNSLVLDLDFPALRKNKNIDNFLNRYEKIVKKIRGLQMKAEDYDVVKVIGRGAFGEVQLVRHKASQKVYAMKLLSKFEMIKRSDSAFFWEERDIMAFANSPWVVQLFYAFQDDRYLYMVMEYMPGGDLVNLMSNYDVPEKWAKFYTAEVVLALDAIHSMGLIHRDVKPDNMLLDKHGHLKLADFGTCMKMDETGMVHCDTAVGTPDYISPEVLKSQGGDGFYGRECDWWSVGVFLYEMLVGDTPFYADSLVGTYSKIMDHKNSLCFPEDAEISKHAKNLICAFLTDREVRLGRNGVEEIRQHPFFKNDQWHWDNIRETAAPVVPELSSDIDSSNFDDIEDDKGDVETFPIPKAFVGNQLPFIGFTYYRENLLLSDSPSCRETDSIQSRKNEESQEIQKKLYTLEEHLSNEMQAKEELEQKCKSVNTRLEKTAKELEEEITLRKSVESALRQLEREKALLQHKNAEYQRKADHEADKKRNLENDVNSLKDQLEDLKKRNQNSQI

Structure (SMILES) | IC50 [1, 3] [µM] | IC50 [2, 4] [µM] | IC50 ([1]; ROCK2 IC50, recombinant GST-tagged human ROCK2, luciferase-based ATP consumption) [µM] | IC50 ([2]; ROCK1 IC50, recombinant GST-tagged human ROCK1, luciferase-based ATP consumption) [µM]
Cc1c(-c2ccnc(N)n2)sc2ccc(CNC(=O)CC(C)CC(C)(C)C)cc12 (stereo not drawn) [Example 158, CC(CC(═O)NCc1ccc2sc(c(C)c2c1)-c3ccnc(N)n3)CC(C)(C)C] | > 5 | > 5 |  | 
CCc1ccc(C(=O)NCc2ccc3sc(-c4ccnc(N)n4)c(C)c3c2)cc1 [Example 137, CCc1ccc(cc1)C(═O)NCc2ccc3sc(c(C)c3c2)-c4ccnc(N)n4] | > 5 | > 5 |  | 
Cc1c(-c2ccnc(N)n2)sc2ccc(CNC(=O)c3ccc(Cl)cc3O)cc12 [Example 190, Cc1c(sc2ccc(CNC(═O)c3ccc(Cl)cc3O)cc12)-c4ccnc(N)n4] | < 5 | < 5 |  | 
Cc1c(-c2ccnc(N)n2)sc2ccc(CNC(=O)C3CCCCN3C(=O)OC(C)(C)C)cc12 (stereo not drawn) [Example 305, Cc1c(sc2ccc(CNC(═O)[C]3CCCCN3C(═O)OC(C)(C)C)cc12)-c4ccnc(N)n4] | > 5 | > 5 |  | 
Cc1c(-c2ccnc(N)n2)sc2ccc(CNC(=O)c3ccc(N(C)C=O)cc3)cc12 [Example 205, CN(C═O)c1ccc(cc1)C(═O)NCc2ccc3sc(c(C)c3c2)-c4ccnc(N)n4] | < 5 | < 5 |  | 
Cc1c(-c2ccnc(N)n2)sc2ccc(CNC(=O)c3ccc(Cl)cc3[N+](=O)[O-])cc12 [Example 267, Cc1c(sc2ccc(CNC(═O)c3ccc(Cl)cc3[N+]([O−])═O)cc12)-c4ccnc(N)n4] | < 5 | > 5 |  | 
Cc1c(-c2ccnc(N)n2)sc2ccc(CNC(=O)CC#N)cc12 [Example 97, Cc1c(sc2ccc(CNC(═O)CC#N)cc12)-c3ccnc(N)n3] | < 5 | < 5 |  | 
Cc1c(-c2ccnc(N)n2)sc2ccc(CNC(=O)c3ccc(Cl)cc3Cl)cc12 [Example 246, Cc1c(sc2ccc(CNC(═O)c3ccc(Cl)cc3Cl)cc12)-c4ccnc(N)n4] |  |  | < 5 | < 5
CCC(C(=O)NCc1ccc2sc(-c3ccnc(N)n3)c(C)c2c1)c1ccccc1 (stereo not drawn) [Example 169, CCC(C(═O)NCc1ccc2sc(c(C)c2c1)-c3ccnc(N)n3)c4ccccc4] | < 5 | < 5 |  | 
Cc1c(-c2ccnc(N)n2)sc2ccc(CNC(=O)C3CCCN3C(=O)OCc3ccccc3)cc12 (stereo not drawn) [Example 321, Cc1c(sc2ccc(CNC(═O)[C]3CCCN3C(═O)OCc4ccccc4)cc12)-c5ccnc(N)n5] | > 5 | < 5 |  | 
Cc1c(-c2ccnc(N)n2)sc2ccc(CNC(=O)C(C(C)C)N(C)C(=O)OC(C)(C)C)cc12 (stereo not drawn) [Example 312, CC(C)C(N(C)C(═O)OC(C)(C)C)C(═O)NCc1ccc2sc(c(C)c2c1)-c3ccnc(N)n3] | > 5 | > 5 |  | 
COc1ccc(C(=O)NCc2ccc3sc(-c4ccnc(N)n4)c(C)c3c2)c(O)c1 [Example 183, COc1ccc(C(═O)NCc2ccc3sc(c(C)c3c2)-c4ccnc(N)n4)c(O)c1] | < 5 | > 5 |  | 
Cc1c(-c2ccnc(N)n2)sc2ccc(CNC(=O)c3cc(F)c(Cl)cc3F)cc12 [Example 253, Cc1c(sc2ccc(CNC(═O)c3cc(F)c(Cl)cc3F)cc12)-c4ccnc(N)n4] | < 5 | < 5 |  | 
COc1cccc(OC)c1C(=O)NCc1ccc2sc(-c3ccnc(N)n3)c(C)c2c1 [Example 220, COc1cccc(OC)c1C(═O)NCc2ccc3sc(c(C)c3c2)-c4ccnc(N)n4] | < 5 | > 5 |  | 
Cc1nc(Br)sc1C(=O)NCc1ccc2sc(-c3ccnc(N)n3)c(C)c2c1 [Example 296, Cc1nc(Br)sc1C(═O)NCc2ccc3sc(c(C)c3c2)-c4ccnc(N)n4] | < 5 | > 5 |  | 
Cc1c(-c2ccnc(N)n2)sc2ccc(CNC(=O)c3cc([N+](=O)[O-])ccc3O)cc12 [Example 228, Cc1c(sc2ccc(CNC(═O)c3cc(ccc3O)[N+]([O−])═O)cc12)-c4ccnc(N)n4] | < 5 | > 5 |  | 
Cc1c(-c2ccnc(N)n2)sc2cnccc12 [Example 18, 4-(3-Methylthieno[2,3-c]pyridin-2-yl)pyrimidin-2-amine] | < 5 | < 5 |  | 
COc1ccc(OC)c(C(=O)NCc2ccc3sc(-c4ccnc(N)n4)c(C)c3c2)c1 [Example 36, N-((2-(2-Aminopyrimidin-4-yl)-3-methylbenzo[b]thiophen-5-yl)methyl)-2,5-dimethoxybenzamide] | < 5 | < 5 |  | 
Cc1c(-c2ccnc(N)n2)sc2ccc(CNC(=O)c3cccc(F)c3)cc12 [Example 124, Cc1c(sc2ccc(CNC(═O)c3cccc(F)c3)cc12)-c4ccnc(N)n4] | < 5 | > 5 |  | 
COc1cc(OC)c(C(=O)NCc2ccc3sc(-c4ccnc(N)n4)c(C)c3c2)cc1OC [Example 278, COc1cc(OC)c(cc1OC)C(═O)NCc2ccc3sc(c(C)c3c2)-c4ccnc(N)n4] | < 5 | < 5 |  | 
Cc1c(-c2ccnc(N)n2)sc2ccc(Cc3cccc(OCCN4CCOCC4)c3)cc12 [Example 29, 4-(3-Methyl-5-(3-(2-morpholinoethoxy)benzyl)benzo[b]thiophen-2-yl)pyrimidin-2-amine] | < 5 | < 5 |  | 
Cc1c(-c2ccnc(N)n2)sc2ccc(CNC(=O)C=O)cc12 [Example 96, Cc1c(sc2ccc(CNC(═O)C═O)cc12)-c3ccnc(N)n3] | > 5 | > 5 |  | 
Cc1c(-c2ccnc(N)n2)sc2ccc(CNC(=O)c3c(F)c(F)c(F)c(F)c3F)cc12 [Example 276, Cc1c(sc2ccc(CNC(═O)c3c(F)c(F)c(F)c(F)c3F)cc12)-c4ccnc(N)n4] | < 5 | < 5 |  | 
CCOc1ccccc1C(=O)NCc1ccc2sc(-c3ccnc(N)n3)c(C)c2c1 [Example 174, CCOc1ccccc1C(═O)NCc2ccc3sc(c(C)c3c2)-c4ccnc(N)n4] | > 5 | > 5 |  | 
Cc1c(-c2ccnc(N)n2)sc2ccc(CNC(=O)c3cccc(Cl)c3[N+](=O)[O-])cc12 [Example 264, Cc1c(sc2ccc(CNC(═O)c3cccc(Cl)c3[N+]([O−])═O)cc12)-c4ccnc(N)n4] | < 5 | > 5 |  | 
Cc1c(-c2ccnc(N)n2)sc2ccc(CNC(=O)c3ccc(F)cc3)cc12 [Example 123, Cc1c(sc2ccc(CNC(═O)c3ccc(F)cc3)cc12)-c4ccnc(N)n4] | < 5 | > 5 |  | 
Cc1c(-c2ccnc(N)n2)sc2ccc(CNC(=O)c3cccc(Br)n3)cc12 [Example 270, Cc1c(sc2ccc(CNC(═O)c3cccc(Br)n3)cc12)-c4ccnc(N)n4] | < 5 | < 5 |  | 

Second part, led by results:

IC50 [1, 3] [µM] | IC50 [2, 4] [µM] | Structure (SMILES) | IC50 ([1]; ROCK2 IC50, recombinant GST-tagged human ROCK2, luciferase-based ATP consumption) [µM] | IC50 ([2]; ROCK1 IC50, recombinant GST-tagged human ROCK1, luciferase-based ATP consumption) [µM]
< 5 | < 5 | Cc1c(-c2ccnc(N)n2)sc2ccc(Oc3cccc([N+](=O)[O-])c3)cc12 [Example 80, 4-(3-Methyl-5-(3-nitrophenoxy)benzo[b]thiophen-2-yl)pyrimidin-2-amine] |  | 
< 5 | < 5 | COc1cc(Cl)ccc1C(=O)NCc1ccc2sc(-c3ccnc(N)n3)c(C)c2c1 [Example 233, COc1cc(Cl)ccc1C(═O)NCc2ccc3sc(c(C)c3c2)-c4ccnc(N)n4] |  | 
< 5 | < 5 | Cc1c(-c2ccnc(N)n2)sc2ccc(CNC(=O)Cc3ccc(C(F)(F)F)cc3)cc12 [Example 273, Cc1c(sc2ccc(CNC(═O)Cc3ccc(cc3)C(F)(F)F)cc12)-c4ccnc(N)n4] |  | 
< 5 | < 5 | Cc1c(-c2ccnc(N)n2)sc2ccc(CNC(=O)c3ccccc3C(=O)c3ccc(O)cc3)cc12 [Example 316, Cc1c(sc2ccc(CNC(═O)c3ccccc3C(═O)c4ccc(O)cc4)cc12)-c5ccnc(N)n5] |  | 
< 5 | < 5 | COc1cc(NC(=O)c2sc3nc(-c4ccncc4)ccc3c2N)cc(OC)c1OC [Example 94] |  | 
< 5 | < 5 | Cc1c(-c2ccnc(N)n2)sc2ccc(CNC(=O)c3ccc4cc(O)ccc4c3)cc12 [Example 236, Cc1c(sc2ccc(CNC(═O)c3ccc4cc(O)ccc4c3)cc12)-c5ccnc(N)n5] |  | 
< 5 | > 5 | Cc1c(-c2ccnc(N)n2)sc2ccc(CNC(=O)c3cccc(F)c3F)cc12 [Example 154, Cc1c(sc2ccc(CNC(═O)c3cccc(F)c3F)cc12)-c4ccnc(N)n4] |  | 
< 5 | > 5 | CC(=O)c1ccccc1C(=O)NCc1ccc2sc(-c3ccnc(N)n3)c(C)c2c1 [Example 165, CC(═O)c1ccccc1C(═O)NCc2ccc3sc(c(C)c3c2)-c4ccnc(N)n4] |  | 
< 5 | < 5 | Cc1c(-c2ccnc(N)n2)sc2ccc(Cl)cc12 [Example 1, 4-(5-Chloro-3-methylbenzo[b]thiophen-2-yl)pyrimidin-2-amine] |  | 
< 5 | < 5 | Cc1c(-c2ccnc(N)n2)sc2ccc(CNC(=O)c3cc(Cl)ccc3[N+](=O)[O-])cc12 [Example 269, Cc1c(sc2ccc(CNC(═O)c3cc(Cl)ccc3[N+]([O−])═O)cc12)-c4ccnc(N)n4] |  | 
< 5 | < 5 | Cc1c(-c2ccnc(N)n2)sc2ccc(CNC(=O)c3cnc[nH]3)cc12 [Example 102, Cc1c(sc2ccc(CNC(═O)c3cnc[nH]3)cc12)-c4ccnc(N)n4] |  | 
< 5 | < 5 | Cc1c(-c2ccnc(N)n2)sc2ccc(CNC(=O)Cc3ccc4c(c3)OCO4)cc12 [Example 212, Cc1c(sc2ccc(CNC(═O)Cc3ccc4OCOc4c3)cc12)-c5ccnc(N)n5] |  | 
